Earlier results on 2 compounds are cited in publication PMC9240354, “Pharmacokinetics, Pharmacodynamics and Antiviral Efficacy of the MEK Inhibitor Zapnometinib in Animal Models and in Humans” (Frontiers in Pharmacology, 2022).

SMILES strings stand for the structures.

Series [1] deals with MEK. Also noted: method as in Yang et al., 2010. The settings on record: single application, LOX melanoma tumor xenograft model; ref Yang et al., 2010; cited from earlier work.
The subject of series [2] is ERK phosphorylation. Also noted: method as in Gilmartin et al., 2011. The settings on record: mouse tumor xenograft model; ref Gilmartin et al., 2011; cited from earlier work.

For the compound `CCCS(=O)(=O)Nc1ccc(F)c(C(=O)c2c[nH]c3ncc(-c4ccc(Cl)cc4)cc23)c1F` [RG7204], the “MEK inhibition with decreasing plasma concentration” value in series [1] is on record as “remained at a relatively constant value up to 8 h post dose”.

For `CC(=O)Nc1cccc(-n2c(=O)n(C3CC3)c(=O)c3c(Nc4ccc(I)cc4F)n(C)c(=O)c(C)c32)c1` [trametinib], the “inhibition of ERK phosphorylation in vivo” value in series [2] is “sustained inhibition of ERK phosphorylation”.
